Laboratory results published in US9701689B2, “Substituted pyridines and pyridazines as CCR10 receptor inhibitors” (KYOWA HAKKO KIRIN CO., LTD., priority 2012, dated 2017).

These compounds were tested against T1, human CCR10 (Homo sapiens, UniProt P46092) (assay: CCR10 antagonistic effect: calcium assay of human CCR10 (CTACK-induced increase of intracellular calcium in hCCR10G16 cells)). Conditions: at a concentration of not more than 1000 nmol/L; human CCR10-expressing hCCR10G16 cells, 300 nmol/L CTACK added; read-out: inhibition of increase in the calcium ion concentration.
T1 construct: expressed in transfected cells; host or cells: KJMGER8 cells (Namalwa cell-derived line), beta-estradiol-induced; hCCR10G16 cells
T1 sequence (P46092 1-362): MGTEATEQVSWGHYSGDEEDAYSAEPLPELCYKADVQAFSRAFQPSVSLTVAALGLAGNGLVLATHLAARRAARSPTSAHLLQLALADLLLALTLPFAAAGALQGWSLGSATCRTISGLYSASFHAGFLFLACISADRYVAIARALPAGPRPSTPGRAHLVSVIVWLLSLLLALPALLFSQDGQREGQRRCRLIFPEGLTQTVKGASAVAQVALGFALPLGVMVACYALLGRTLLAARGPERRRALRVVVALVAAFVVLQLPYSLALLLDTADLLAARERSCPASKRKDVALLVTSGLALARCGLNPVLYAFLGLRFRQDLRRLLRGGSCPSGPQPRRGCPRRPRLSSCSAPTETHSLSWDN
Format: cell-based
In short: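 Inhibition of CTACK-evoked calcium flux (max minus min Fluo-3 fluorescence over ~5 min, FDSS) was calculated against control in β-estradiol-induced human CCR10/Gα16 KJMGER8 cells, after 30 min compound preincubation at 37 °C; CTACK added from a 300 nmol/L solution.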

Inhibition at up to 1 µM, ≥ 50%:
Cc1c(S(=O)(=O)Nc2ccon2)ncc(C(=O)N2CCC(c3ccc(F)cc3)CC2)c1NCC1CCC1 [Compound 227, 4-(cyclobutylmethylamino)-5-[4-(4-fluorophenyl)piperidine-1-carbonyl]-N-(isoxazol-3-yl)-3-methylpyridine-2-sulfonamide]
Cc1c(S(N)(=O)=O)ncc(C(=O)N2CCC(c3ccc(F)cc3)CC2)c1Nc1cccc(Cl)c1 [Compound 197, 4-(3-chlorophenylamino)-5-[4-(4-fluorophenyl)piperidine-1-carbonyl]-3-methylpyridine-2-sulfonamide]
NS(=O)(=O)c1ncc(C(=O)N2CCC(c3ccc(F)cc3)CC2)c(NC(=O)c2ccccc2)c1Cl [Compound 211, N-{3-chloro-5-[4-(4-fluorophenyl)piperidine-1-carbonyl]-2-sulfamoylpyridin-4-yl}benzamide]
Cc1cc(F)ccc1Nc1c(C(=O)N2CCC(c3ccc(F)cc3)CC2)cnc(S(=O)(=O)N2CCC(N)CC2)c1Cl [Compound 184, [6-(4-aminopiperidin-1-ylsulfonyl)-5-chloro-4-(4-fluoro-2-methylphenylamino)pyridin-3-yl][4-(4-fluorophenyl)piperidin-1-yl]methanone]
Cc1cc(C#N)c(Nc2c(C(=O)N3CCC(c4ccc(F)cc4)CC3)cnc(S(N)(=O)=O)c2Cl)cc1C [Compound 320, 3-chloro-4-(2-cyano-4,5-dimethylphenylamino)-5-[4-(4-fluorophenyl)piperidine-1-carbonyl]pyridine-2-sulfonamide]
NS(=O)(=O)c1cc(Nc2c(F)cccc2F)c(C(=O)N2CCC(c3ccc(F)cc3)CC2)cn1 [Compound 73, 4-(2,6-difluorophenylamino)-5-[4-(4-fluorophenyl)piperidine-1-carbonyl]pyridine-2-sulfonamide]
Cc1cc(F)ccc1Nc1c(C(=O)N2CCC(c3ccc(F)cc3)CC2)cnc(S(=N)(N)=O)c1Cl (stereo not drawn) [Compound 200, 3-chloro-4-(4-fluoro-2-methylphenylamino)-5-[4-(4-fluorophenyl)piperidine-1-carbonyl]pyridine-2-sulfonimidamide]
Cc1cc(NS(=O)(=O)c2ncc(C(=O)N3CCC(c4ccc(F)cc4)CC3)c(Nc3ccc(F)cc3F)c2C)sn1 [Compound 316, 4-(2,4-difluorophenylamino)-5-[4-(4-fluorophenyl)piperidine-1-carbonyl]-3-methyl-N-(3-methylisothiazol-5-yl)pyridine-2-sulfonamide]
Cc1c(S(=O)(=O)Nc2ccon2)ncc(C(=O)N2CCC(c3ccc(F)cc3)CC2)c1Nc1cccc(Cl)c1 [Compound 244, 4-(3-chlorophenylamino)-5-[4-(4-fluorophenyl)piperidine-1-carbonyl]-N-(isoxazol-3-yl)-3-methylpyridine-2-sulfonamide]
Cc1c(S(=O)(=O)Nc2ccon2)ncc(C(=O)N2CCC(c3ccc(F)cc3)CC2)c1Nc1ccc(F)cc1Cl [Compound 273, 4-(2-chloro-4-fluorophenylamino)-5-[4-(4-fluorophenyl)piperidine-1-carbonyl]-N-(isoxazol-3-yl)-3-methylpyridine-2-sulfonamide]
NS(=O)(=O)c1cc(Nc2ccc3ncccc3c2)c(C(=O)N2CCC(c3ccc(F)cc3)CC2)cn1 [Compound 4, 5-[4-(4-fluorophenyl)piperidine-1-carbonyl]-4-(quinolin-6-ylamino)pyridine-2-sulfonamide]
Cc1cccc(Nc2c(C(=O)N3CCC(c4ccc(F)cc4)CC3)cnc(S(=O)(=O)Nc3cc(C)ns3)c2C)c1 [Compound 276, 5-[4-(4-fluorophenyl)piperidine-1-carbonyl]-3-methyl-N-(3-methylisothiazol-5-yl)-4-(m-tolylamino)pyridine-2-sulfonamide]
CCNC(=O)NS(=O)(=O)c1ncc(C(=O)N2CCC(c3ccc(F)cc3)CC2)c(Nc2ccc(F)cc2C)c1Cl [Compound 43, 3-chloro-N-(ethylcarbamoyl)-4-(4-fluoro-2-methylphenylamino)-5-[4-(4-fluorophenyl)piperidine-1-carbonyl]pyridine-2-sulfonamide]
Cc1nc(C(F)(F)F)ccc1Nc1c(C(=O)N2CCC(c3ccc(F)cc3)CC2)cnc(S(N)(=O)=O)c1C [Compound 245, 5-[4-(4-fluorophenyl)piperidine-1-carbonyl]-3-methyl-4-[2-methyl-6-(trifluoromethyl)pyridin-3-ylamino]pyridine-2-sulfonamide]
Cc1c(S(=O)(=O)Nc2ccon2)ncc(C(=O)N2CCC(c3ccc(F)cc3)CC2)c1Nc1cc(F)ccc1F [Compound 252, 4-(2,5-difluorophenylamino)-5-[4-(4-fluorophenyl)piperidine-1-carbonyl]-N-(isoxazol-3-yl)-3-methylpyridine-2-sulfonamide]
CONS(=O)(=O)c1ncc(C(=O)N2CCC(c3ccc(F)cc3)CC2)c(Nc2ccc(F)cc2C)c1Cl [Compound 193, 3-chloro-4-(4-fluoro-2-methylphenylamino)-5-[4-(4-fluorophenyl)piperidine-1-carbonyl]-N-methoxypyridine-2-sulfonamide]
Cc1cccc(Nc2c(C(=O)N3CCC(c4ccc(F)cc4)CC3)cnc(S(N)(=O)=O)c2Cl)c1 [Compound 26, 3-chloro-5-[4-(4-fluorophenyl)piperidine-1-carbonyl]-4-(m-tolylamino)pyridine-2-sulfonamide]
NS(=O)(=O)c1cc(Nc2cccc(Cl)c2)c(C(=O)N2CCC(c3ccc(F)cc3)CC2)cn1 [Compound 103, 4-(3-chlorophenylamino)-5-[4-(4-fluorophenyl)piperidine-1-carbonyl]pyridine-2-sulfonamide]
CC(=O)CNS(=O)(=O)c1cc(Nc2ccc(F)cc2C)c(C(=O)N2CCC(c3ccc(F)cc3)CC2)cn1 [Compound 131, 4-(4-fluoro-2-methylphenylamino)-5-[4-(4-fluorophenyl)piperidine-1-carbonyl]-N-(2-oxopropyl)pyridine-2-sulfonamide]
Cc1ccc(Nc2c(C(=O)N3CCC(c4ccc(F)cc4)CC3)cnc(S(N)(=O)=O)c2Cl)c(F)c1 [Compound 328, 3-chloro-4-(2-fluoro-4-methylphenylamino)-5-[4-(4-fluorophenyl)piperidine-1-carbonyl]pyridine-2-sulfonamide]
NS(=O)(=O)c1cc(Nc2cc(F)c(Cl)cc2Cl)c(C(=O)N2CCC(c3ccc(F)cc3)CC2)cn1 [Compound 71, 4-(2,4-dichloro-5-fluorophenylamino)-5-[4-(4-fluorophenyl)piperidine-1-carbonyl]pyridine-2-sulfonamide]
NS(=O)(=O)c1cc(Nc2ccc3c(c2)CCO3)c(C(=O)N2CCC(c3ccc(F)cc3)CC2)cn1 [Compound 94, 4-(2,3-dihydrobenzofuran-5-ylamino)-5-[4-(4-fluorophenyl)piperidine-1-carbonyl]pyridine-2-sulfonamide]
Cc1cc(NS(=O)(=O)c2cc(Nc3ccc(F)cc3C)c(C(=O)N3CCC(c4ccc(F)cc4)CC3)cn2)no1 [Compound 157, 4-(4-fluoro-2-methylphenylamino)-5-[4-(4-fluorophenyl)piperidine-1-carbonyl]-N-(5-methylisoxazol-3-yl)pyridine-2-sulfonamide]
NS(=O)(=O)c1ncc(C(=O)N2CCC(c3ccc(F)cc3)CC2)c(N[C@H]2C[C@H]3CC[C@@H]2C3)c1Cl [Compound 236, 4-((1R,2S,4S)-bicyclo[2.2.1]heptan-2-ylamino)-3-chloro-5-[4-(4-fluorophenyl)piperidine-1-carbonyl]pyridine-2-sulfonamide]
Cc1ccccc1Nc1c(C(=O)N2CCC(c3ccc(F)cc3)CC2)cnc(S(N)(=O)=O)c1C [Compound 331, 5-[4-(4-fluorophenyl)piperidine-1-carbonyl]-3-methyl-4-(o-tolylamino)pyridine-2-sulfonamide]
Cc1cc(Nc2cc(S(N)(=O)=O)ncc2C(=O)N2CCC(c3ccc(F)cc3)CC2)ccc1F [Compound 83, 4-(4-fluoro-3-methylphenylamino)-5-[4-(4-fluorophenyl)piperidine-1-carbonyl]pyridine-2-sulfonamide]
NS(=O)(=O)c1ncc(C(=O)N2CCN(c3ccc(F)cc3)C(=O)C2)c(NC2(c3ccccc3)CC2)c1Cl [Compound 278, 3-chloro-5-[4-(4-fluorophenyl)-3-oxopiperazine-1-carbonyl]-4-(1-phenylcyclopropylamino)pyridine-2-sulfonamide]
